Reference: patent publication US10308595B2, “Albicidin derivatives, their use and synthesis” (priority 2013, dated 2019)
Like-named read-outs stand apart in the source and are kept apart here.

Tests used:
Type in all cases: cell-based
Escherichia coli DH5α = test: Test agar plates (disc diffusion), diameter of inhibition area; conditions: 18 h, read-out: diameter of inhibition, Escherichia coli DH5α
Method: (§1) The dry compounds were dissolved in DMSO (1 mg/ml) and the so obtained stock solution was diluted with sterilized Millipore water 1:10 and 1:100
(§2) 20 μl of cryo stock of each strain were inoculated to 20 ml of Mueller-Hinton medium and grown overnight at 30° C. or 37° C. on a vertical shaker with 160 rpm. The inoculum for the test was adjusted by the 0.5 McFarland Standard (OD625 from 0.08 to 0.1)
Escherichia coli DH5α [gram. Neg.] Medium: MHB/37° C.
(§3) Every plate is prepared by pouring 10 ml Mueller-Hinton agar into standard petri dishes (diam 94 mm). The so obtained Mueller-Hinton plates are overlayed with 4 ml Mueller-Hinton soft agar containing 100 μl suspension of the test strain.
(§4) After the soft agar turned solid, sterile susceptibility test discs were circular placed on the agar and on every test disc 10 μl compound was added. Each concentration is tested in triplicate. The agar dishes were incubated for 18 hours at a temperature of 30° C. or 37° C. Results are obtained by measuring the diameter of inhibition area around each test disc.

[1] = test system: Micrococcus luteus DSM1790; test: as above; conditions: Micrococcus luteus, DSM1790, 18 h, read-out: diameter of inhibition, Micrococcus luteus DSM1790
Method: as §1, §2
Micrococcus luteus DSM1790 [gram. Pos.] Medium: MHB/37° C.
as §3, §4

[2] = test system: Staphylococcus aureus DSM 2569; test: as above; conditions: DSM2569, 18 h, test agar plates, active substance 1 mg/ml, "more than 1 cm and more than 2 cm" [sic], read-out: diameter of inhibition, Staphylococcus aureus DSM 2569
Method: as §1, §2
Staphylococcus aureus DSM 2569 [gram. Pos.] Medium: MHB/37° C.
as §3, §4

Bacillus subtilis DSM10 = test: as above; conditions: Bacillus subtilis, DSM10, 18 h, read-out: diameter of inhibition, Bacillus subtilis DSM10
Method: as §1, §2
Bacillus subtilis DSM10 [gram. Pos.] Medium: MHB/30° C.
as §3, §4

[3] = test system: Escherichia coli albi-res (Montpellier); test: as above; conditions: 18 h, read-out: diameter of inhibition, Escherichia coli albi-res (Montpellier)
Method: as §1, §2
Escherichia coli albi-res (Montpellier) [gram. Neg.] Medium: MHB/37° C.
as §3, §4

[4] = test system: Pseudomonas aeruginosa DSM1117; test: as above; conditions: DSM1117, 18 h, read-out: diameter of inhibition, Pseudomonas aeruginosa DSM1117
Method: as §1, §2
Pseudomonas aeruginosa DSM1117 [gram. Neg.] Medium: MHB/37° C.
as §3, §4

[5] = test system: Escherichia coli (ATCC 25922, 100-2-49 and 100-2-56); test: EN-ISO standard test (ISO 20776-1), MIC
Method: (§5) Furthermore, compounds were tested against the following bacteria
(§6) according to EN-ISO standard (ISO 20776-1: 2006. Clinical laboratory testing and in vitro diagnostic test systems—Susceptibility testing of infectious agents and evaluation of performance of antimicrobial susceptibility test devices—Part 1:Reference method for testing the in vitro activity of antimicrobial agents against rapidly growing aerobic bacteria involved in infectious diseases; German version EN ISO 20776-1:2006. Beuth-Verlag, Berlin).

[6] = test system: Salmonella enteritidis (PEG-10-3-58); test: EN-ISO standard test (ISO 20776-1), MIC
Method: as §5
Salmonella enteritidis (PEG-10-3-58),
as §6

[7] = test agar plates, active substance 1 mg/ml, more than 1 cm or more than 2 cm
[8] = test agar plates, active substance 1 mg/ml, "more than 1 cm and more than 2 cm" [sic]
[9] = test agar plates, active substance 1 mg/ml, more than 1 cm or more than 3.9 cm [sic]

SMILES | zone of inhibition at 1000 µg/mL (Escherichia coli DH5α; [7]) [mm] | zone of inhibition at 1000 µg/mL [1, 8] [mm] | zone of inhibition at 1000 µg/mL [2] [mm] | zone of inhibition at 1000 µg/mL (Bacillus subtilis DSM10; [9]) [mm] | zone of inhibition at 1000 µg/mL [3, 7] [mm] | zone of inhibition at 1000 µg/mL [4, 7] [mm] | further results
COc1c(NC(=O)c2ccc(NC(=O)c3ccc(NC(=O)C(CC#N)NC(=O)c4ccc(NC(=O)c5cccc(C(F)(F)F)c5)cc4)cc3)c(OC)c2O)ccc(C(=O)O)c1O (centres unmarked) [Compound 12] | > 10 | > 10 | > 10 | > 10 | > 10 | > 10 | –
CCCCCC(=O)Nc1ccc(C(=O)NC(CC#N)C(=O)Nc2ccc(C(=O)Nc3ccc(C(=O)Nc4ccc(C(=O)O)c(O)c4OC)c(O)c3OC)cc2)cc1 (centres unmarked) [Compound 34] | > 10 | – | > 10 | > 10 | – | > 10 | zone of inhibition at 1000 µg/mL [3]: > 10 mm
CCC(CC)C(=O)Nc1ccc(C(=O)NC(CC#N)C(=O)Nc2ccc(C(=O)Nc3ccc(C(=O)Nc4ccc(C(=O)O)c(O)c4OC)c(O)c3OC)cc2)cc1 (centres unmarked) [Compound 39] | – | – | – | > 10 | > 10 | – | –
COc1c(NC(=O)c2ccc(NC(=O)c3ccc(NC(=O)C(CC#N)NC(=O)c4ccc(NC(=O)c5ccc[nH]5)cc4)cc3)c(OC)c2O)ccc(C(=O)O)c1O (centres unmarked) [Compound 14] | – | – | – | > 10 | > 10 | – | –
COc1c(NC(=O)c2ccc(NC(=O)c3ccc(NC(=O)C(CC#N)NC(=O)c4ccc(NC(=O)c5ccc(C#N)cc5)cc4)cc3)c(OC)c2O)ccc(C(=O)O)c1O (centres unmarked) [Compound 11] | > 10 | > 10 | > 10 | > 10 | > 10 | > 10 | –
COc1c(NC(=O)c2ccc(NC(=O)c3ccc(NC(=O)C(CC#N)NC(=O)c4ccc(NC(=O)C(C)(C)C)cc4)cc3)c(OC)c2O)ccc(C(=O)O)c1O (centres unmarked) [Compound 40] | – | – | – | > 10 | > 10 | – | –
COc1c(NC(=O)c2ccc(NC(=O)c3ccc(NC(=O)C(CC#N)NC(=O)c4ccc(NC(=O)/C=C/c5ccccc5)cc4)cc3)c(OC)c2O)ccc(C(=O)O)c1O (centres unmarked) [Compound 3] | > 10 | > 10 | > 10 | > 10 | > 10 | > 10 | –
COc1c(NC(=O)c2ccc(NC(=O)c3ccc(NC(=O)C(CC#N)NC(=O)c4ccc(NC(=O)/C(C)=C/c5ccccc5)cc4)cc3)c(OC)c2O)ccc(C(=O)O)c1O (centres unmarked) [Compound 2] | > 10 | > 10 | > 10 | > 10 | > 10 | > 10 | –
COc1c(NC(=O)c2ccc(NC(=O)c3ccc(NC(=O)C(CC#N)NC(=O)c4ccc(NCc5ccc(-c6ccccc6)cc5)cc4)cc3)c(OC)c2O)ccc(C(=O)O)c1O (centres unmarked) [Compound 44] | – | – | – | – | – | – | zone of inhibition at 1000 µg/mL (Escherichia coli DH5α): > 10 mm; zone of inhibition at 1000 µg/mL [1]: > 10 mm; zone of inhibition at 1000 µg/mL (Bacillus subtilis DSM10): > 10 mm; zone of inhibition at 1000 µg/mL [3]: > 10 mm; zone of inhibition at 1000 µg/mL [4]: > 10 mm
COc1ccc(C(=O)Nc2ccc(C(=O)NC(CC#N)C(=O)Nc3ccc(C(=O)Nc4ccc(C(=O)Nc5ccc(C(=O)O)c(O)c5OC)c(O)c4OC)cc3)cc2)cc1 (centres unmarked) [Compound 10] | > 10 | > 10 | > 10 | > 10 | > 10 | > 10 | –
COc1c(NC(=O)c2ccc(NC(=O)c3ccc(NC(=O)C(CC#N)NC(=O)c4ccc(NC(=O)c5ccc(N6CCOCC6)cc5)cc4)cc3)c(OC)c2O)ccc(C(=O)O)c1O (centres unmarked) [Compound 8] | > 10 | – | > 10 | > 10 | > 10 | – | –
COc1c(NC(=O)c2ccc(NC(=O)c3ccc(NC(=O)C(CC#N)NC(=O)c4ccc(NC(=O)c5ccco5)cc4)cc3)c(OC)c2O)ccc(C(=O)O)c1O (centres unmarked) [Compound 15] | – | – | > 10 | > 10 | > 10 | – | –
COc1c(NC(=O)c2ccc(NC(=O)c3ccc(NC(=O)C(CC#N)NC(=O)c4ccc(NC(=O)C5CC5)cc4)cc3)c(OC)c2O)ccc(C(=O)O)c1O (centres unmarked) [Compound 38] | – | – | – | > 10 | > 10 | – | –
COc1c(NC(=O)c2ccc(NC(=O)c3ccc(NC(=O)C(CC#N)NC(=O)c4ccc(NC(=O)c5ccc(-c6ccccc6)cc5)cc4)cc3)c(OC)c2O)ccc(C(=O)O)c1O (centres unmarked) [Compound 9] | > 10 | > 10 | > 10 | > 10 | > 10 | – | –
COc1c(NC(=O)c2ccc(NC(=O)c3ccc(NC(=O)C(CC#N)NC(=O)c4ccc(NC(=O)CCc5ccccn5)cc4)cc3)c(OC)c2O)ccc(C(=O)O)c1O (centres unmarked) [Compound 29] | – | – | – | > 10 | – | > 10 | zone of inhibition at 1000 µg/mL [3]: > 10 mm
COc1ccc(S(=O)(=O)Nc2ccc(C(=O)NC(CC#N)C(=O)Nc3ccc(C(=O)Nc4ccc(C(=O)Nc5ccc(C(=O)O)c(O)c5OC)c(O)c4OC)cc3)cc2)cc1 (centres unmarked) [Compound 49] | – | – | – | – | – | – | zone of inhibition at 1000 µg/mL [3]: > 10 mm
COc1c(NC(=O)c2ccc(NC(=O)c3ccc(NC(=O)C(CC#N)NC(=O)c4ccc(NC(=O)c5cccc(-c6ccccc6)c5)cc4)cc3)c(OC)c2O)ccc(C(=O)O)c1O (centres unmarked) [Compound 13] | > 10 | > 10 | – | > 10 | > 10 | > 10 | –
COc1c(NC(=O)c2ccc(NC(=O)c3ccc(NC(=O)C(CC#N)NC(=O)c4ccc(NC(=O)C5CCCC5)cc4)cc3)c(OC)c2O)ccc(C(=O)O)c1O (centres unmarked) [Compound 41] | – | – | – | > 10 | > 10 | – | –
COc1c(NC(=O)c2ccc(NC(=O)c3ccc(NC(=O)C(CC#N)NC(=O)c4ccc(NC(=O)Cc5ccc(Cl)cc5)cc4)cc3)c(OC)c2O)ccc(C(=O)O)c1O (centres unmarked) [Compound 26] | – | – | – | > 10 | – | > 10 | zone of inhibition at 1000 µg/mL [3]: > 10 mm
COc1c(NC(=O)c2ccc(NC(=O)c3ccc(NC(=O)C(CC#N)NC(=O)c4ccc(NC(=O)/C(C)=C/c5ccc(C(F)(F)F)cc5)cc4)cc3)c(OC)c2O)ccc(C(=O)O)c1O (centres unmarked) [Compound 4] | > 10 | > 10 | > 10 | > 10 | > 10 | > 10 | –
COc1c(NC(=O)c2ccc(NC(=O)c3ccc(NC(=O)C(CC#N)NC(=O)c4ccc(NC(=O)Nc5ccccc5)cc4)cc3)c(OC)c2O)ccc(C(=O)O)c1O (centres unmarked) [Compound 43] | – | – | – | > 10 | – | > 10 | MIC values (minimal inhibitory concentration), in words [5]: good to very good; zone of inhibition at 1000 µg/mL [3]: > 10 mm; MIC values, in words [6]: good to very good
COc1c(NC(=O)c2ccc(NC(=O)c3ccc(NC(=O)C(CC#N)NC(=O)c4ccc(NC(=O)c5ccc(O)cc5)cc4)cc3)c(OC)c2O)ccc(C(=O)O)c1O (centres unmarked) [Compound 7] | – | – | > 10 | > 10 | > 10 | > 10 | –
